From publication PMC6151961 (Journal of Enzyme Inhibition and Medicinal Chemistry, 2018)
Where two headings read alike, the source gives them in different places.

Biological target: CA IX (Homo sapiens, UniProt Q16790)
Assay: biochemical
[1] = library compounds with IDs A… and B…, from observed Ki (nM)
[2] = experimental value from the library Ki (IDs A…, B…), values equal log10 of Ki in nM
[3] = experimental value used for the QSPR model, library compounds (IDs A…, B…), equals log10 of Ki in nM

## Cc1nnnn1-c1ccc2c(c1)C=CS(=O)(=O)O2 [A1375]
[1]
  log10 of Ki in nM: 1.819

## Nc1nc(N)c2nc(CNCCc3ccc(S(N)(=O)=O)cc3)cnc2n1 [A0285]
[2]
  log10 of Ki in nM: 0.672

## NS(=O)(=O)c1ccc(C(=O)NNC(=O)Nc2ccc([N+](=O)[O-])cc2)cc1 [A0170]
  log10 of Ki in nM: 0.505

## NS(=O)(=O)c1ccc(NC(=O)c2ccc(/N=C3\C(=O)Nc4ccc([N+](=O)[O-])cc43)cc2)cc1 [A1847]
[2]
  log10 of Ki in nM: 2.375

## N#Cc1c(-c2ccc(Br)cc2)cn(-c2ccc(S(N)(=O)=O)cc2)c1NC(=O)c1ccc(Br)cc1 [B0101]
[1]
  log10 of Ki in nM: 0.724

## NS(=O)(=O)c1ccc(CCNC(=S)Nc2ccc(C(=O)O)cc2)cc1 [A0666]
[3]
  log10 of Ki in nM: 1.000

## Cc1ccc2c(n1)SCc1cnc(Nc3ccc(S(N)(=O)=O)cc3)nc1-2 [A0518]
[2]
  log10 of Ki in nM: 0.908

## CCCN(CCC)S(=O)(=O)c1ccc(C(=O)N[C@@H](CCSC)C(N)=O)cc1 [A0860]
[1]
  log10 of Ki in nM: 1.301

## O=S1(=O)C=Cc2cc(-c3nnnn3-c3cccc4ccccc34)ccc2O1 [A0400]
[2]
  log10 of Ki in nM: 0.813

## Nc1nc(N)c2nc(CNCCc3ccc(S(=O)(=O)O)cc3)cnc2n1 [A2175]
Experimental value from the library Ki (IDs A…, B…), values equal log10 of Ki in nM, read-out: pKi (exp.) (converted)
  Ki: 1000 nM

## NS(=O)(=O)c1ccc(CNS(=O)(=O)c2ccc(NC(=O)c3c(F)c(F)cc(F)c3F)cc2)cc1 [A0340]
[2]
  log10 of Ki in nM: 0.740

## Cc1ccc(-c2cnc(C3CC3)o2)cc1S(N)(=O)=O [B0710]
[1]
  log10 of Ki in nM: 2.502

## COC(=O)[C@H]1O[C@@H](n2cc(COC(=O)c3ccc(S(N)(=O)=O)cc3)nn2)[C@H](OC(C)=O)[C@@H](OC(C)=O)[C@@H]1OC(C)=O [A1674]
  log10 of Ki in nM: 2.097

## Cc1c(C(=O)NCCN(C)C)cc(-c2ccc(-c3ccccc3)cc2)n1-c1ccc(S(N)(=O)=O)cc1 [A1493]
[3]
  log10 of Ki in nM: 1.919

## O=c1ccc2ccc(OCc3cn(-c4ccc(C(F)(F)F)cc4)nn3)cc2o1 [A0920]
[2]
  log10 of Ki in nM: 1.362

## Nc1c(Cl)cc(S(=O)(=O)Nc2nnc(S(N)(=O)=O)s2)cc1Br [A0922]
  log10 of Ki in nM: 1.362

## NS(=O)(=O)c1ccc(-n2cc(-c3ccc(Br)cc3)c3c2N=CN2NC(=O)CN=C32)cc1 [A0710]
[1]
  log10 of Ki in nM: 1.068

## Cc1cc(C)oc(=O)c1 [B0786]
[3]
  log10 of Ki in nM: 3.393

## COc1ccc(-c2cc(CO)nn2-c2ccc(S(N)(=O)=O)cc2)cc1 [A0859]
[2]
  log10 of Ki in nM: 1.301

## Cc1cc(C)cc(NC(=O)Nc2ccc3c(C)cc(=O)oc3c2)c1 [A2046]
[1]
  log10 of Ki in nM: 2.785

## CC(C)(F)CNS(=O)(=O)c1ccc(N)cc1 [A1490]
[3]
  log10 of Ki in nM: 1.919

## CC(=O)OC[C@H]1O[C@@H](SCc2nnn(-c3ccc(S(N)(=O)=O)cc3)c2C#CCO)[C@H](OC(C)=O)[C@@H](OC(C)=O)[C@@H]1OC(C)=O [A1422]
[3]
  log10 of Ki in nM: 1.857

## NS(=O)(=O)c1cccc(-c2cn([C@@H]3O[C@H](CO)[C@@H](O)[C@H](O)[C@H]3O)nn2)c1 [A1463]
[3]
  log10 of Ki in nM: 1.893

## N#Cc1c(-c2ccc(Br)cc2)cn(-c2ccc(S(N)(=O)=O)cc2)c1NC(=S)Nc1ccc(Br)cc1 [A1551]
[3]
  log10 of Ki in nM: 1.960

## NS(=O)(=O)c1ccc(NC(=O)c2ccc(/N=C3\C(=O)Nc4ccc(F)cc43)cc2)cc1 [A0310]
[1]
  log10 of Ki in nM: 0.699

## COc1cccc(C(=O)CN2C(=O)C=C(C)OS2(=O)=O)c1 [A1737]
[2]
  log10 of Ki in nM: 2.207

## C=CCOc1cc(=S)oc2ccccc12 [A2239]
[1]
  log10 of Ki in nM: 3.483

## NS(=O)(=O)c1ccc(CCNCc2cc(Cl)cc(Cl)c2O)cc1 [A0260]
[3]
  log10 of Ki in nM: 0.613

## COc1ccc2c(=O)n(-c3ccc(S(N)(=O)=O)cc3)c(S)nc2c1 [B0440]
  log10 of Ki in nM: 1.653

## NS(=O)(=O)c1ccc(C(=O)NCCc2ccc(O)c(O)c2)cc1 [A0813]
[2]
  log10 of Ki in nM: 1.230

## NS(=O)(=O)c1ccc(CNC(=O)Cc2ccccc2)cc1 [A1701]
[1]
  log10 of Ki in nM: 2.134

## CCCCCOS(N)(=O)=O [A1675]
  log10 of Ki in nM: 2.100

## Fc1ccc(-c2nn(-c3ccccc3)cc2-c2nc3ccccc3[nH]2)cc1 [A1367]
[1]
  log10 of Ki in nM: 1.813

## NS(=O)(=O)c1ccc(OCc2ccc(F)cc2)cc1 [A0463]
  log10 of Ki in nM: 0.869

## NS(=O)(=O)Nc1ccc(S(=O)(=O)Nc2nnc(S(N)(=O)=O)s2)cc1 [A1288]
[2]
  log10 of Ki in nM: 1.716

## CCCCC(=O)OC[C@H]1O[C@@H](n2cc(-c3ccc(S(N)(=O)=O)cc3)nn2)[C@H](OC(=O)CCCC)[C@@H](OC(=O)CCCC)[C@H]1OC(=O)CCCC [A1944]
[2]
  log10 of Ki in nM: 2.525

## O=C1NS(=O)(=O)c2cc([N+](=O)[O-])ccc21 [A1570]
[1]
  log10 of Ki in nM: 1.981

## COc1ccc2c(c1)/C(=N\NC(=O)c1cnn(-c3ccc(S(N)(=O)=O)cc3)c1-c1ccccc1)C(=O)N2 [B0041]
[1]
  log10 of Ki in nM: 0.519

## NS(=O)(=O)c1ccc(NC2=NC(=O)/C(=N/Nc3ccc(Cl)cc3)S2)cc1 [B0138]
[3]
  log10 of Ki in nM: 0.863
